Source: US20110171279A1, “POLYETHYLENIMINE BIOCIDES” (NDSU RESEARCH FOUNDATION, priority 2009, published 2011)
Like-named read-outs stand apart in the source and are kept apart here.

How the values were obtained:
Format in all cases: cell-based
[1] = system: Staphylococcus epidermidis; assay: Growth reduction / MIC test against Staphylococcus epidermidis in tryptic soy broth, absorbance 600 nm; details: for Percent reduction in growth of Staphylococcus epidermidis: Table 9; for MIC: Staphylococcus epidermidis, read-out: S. epidermidis MIC
Protocol: (§1) The antimicrobial properties of the Formulations were determined by measuring the minimum inhibitory concentration (MIC) or by using an adaptation of the MIC test. […] Additional details of the MIC method can be found at Andrews, J. M., Journal of Antimicrobial Chemotherapy (2001) 48, 5-16, incorporated herein by reference in its entirety.
(§2) In accordance with the MIC test, working solutions for each Formulation were prepared by dissolving 100 mg of each Formulation in 10 mL of methanol (Sigma-Aldrich) to generate a 10 mg/mL solution. Next, 10 ml of tryptic soy broth was spiked with 200 μL of the mg/mL Formulation solution to achieve a final concentration of 0.2 mg/mL.
(§3) 0.2 mL of each concentration of each Formulation (spiked with S. epidermidis) was added in triplicate to a 96-well plate. Additionally, 0.2 mL of tryptic soy broth without any S. epidermidis or Formulation and 0.2 mL of tryptic soy broth with S. epidermidis, but no Formulations, served as negative and positive growth controls, respectively. Plates were then placed in an incubator, at 37° C. for 24 hrs (with shaking), and then measured for growth by taking absorbance measurements at 600 nm with a multi-well plate spectrophotometer (Synergy HT microplate reader, BioTek Instruments, Winooski, Vt.). The efficacy of each Formulation was measured by determining the percent reduction in bacterial growth as a function of Formulation concentration.
For comparison purposes a benzylpiperidino biocide (“Reference 1”) was prepared using ETCS and synthetic methods similar to those described in U.S. Pat. No. 5,036,077, issued Jul. 30, 1991, and incorporated by reference in its entirety. To make Reference 1, 3.9 g of ETCS and 2 g of 4-benzylpiperidine were reacted in 30 mL of methanol. The mixture was heated at 65° C. for 48 hours. Reaction completion was confirmed by ^1H NMR, ^13C NMR, HMQC (2D) NMR and elemental analysis. The antimicrobial activity of Formulations 69-77 and Reference 1 toward S. epidermidis was measured by determining the percent reduction in bacterial growth as a function of concentration, as was done above in EXAMPLE 3.

Candida albicans = assay: Antifungal activity, percent reduction in fungal growth of Candida albicans; details: Table 11
Protocol: Additionally, the antifungal activity of Formulations 69-77 and Reference 1 toward Candida albicans was measured by determining the percent reduction in fungal growth as a function of concentration.

Escherichia coli = assay: Growth reduction / MIC test against Escherichia coli in Luria-Bertani broth, absorbance 600 nm; details: for Percent reduction in growth of Escherichia coli: Table 10; for MIC: Escherichia coli, read-out: E. Coli MIC
Protocol: as §1
as §2, with “Luria-Bertani” for “tryptic soy”
as §3, with “E. coli)” for “S. epidermidis)”, “Luria-Bertani” for “tryptic soy”, “E. coli” for “S. epidermidis”, “E. coli,” for “S. epidermidis,”, “HT).” for “HT microplate reader, BioTek Instruments, Winooski, Vt.).”
Next, the antimicrobial activity of Formulations 69-77 and Reference 1 toward E. coli was measured by determining the percent reduction in bacterial growth as a function of concentration. The results for the examples were compared to various PEIs used to produce the examples.

Cellulophaga lytica = assay: Growth reduction / MIC test against Cellulophaga lytica; details: for MIC: Cellulophaga lytica
Protocol: as §1
as §2, with “ml of Guillard's F/2 medium was spiked” for “ml of tryptic soy broth was spiked”, “of the 10 mg/mL Formulation” for “of the mg/mL Formulation”
(§4) 0.2 mL of each concentration of each Formulation (spiked with C. lytica) was added in triplicate to a 96-well plate. Additionally, 0.2 mL of Guillard's F/2 medium without any C. lytica or Formulation and 0.2 mL of Guillard's F/2 medium with C. lytica, but no Formulations, served as negative and positive growth controls, respectively. The 96-well plates were placed in an illuminated growth cabinet with a 16:8 light:dark cycle (photon flux density 33 μmol m^−2 s^−1) for 48 hrs at 18° C. and measured for chlorophyll fluorescence using a multi-well plate spectrophotometer (excitation: 360 nm; emission: 670 nm). The efficacy of each Formulation was measured by determining the percent reduction in diatom growth as a function of Formulation concentration.
(§5) The antimicrobial activity of Formulations 10-12, also derived from ETCS and PEI, was determined toward a suite of marine microorganisms, namely, Pseudoalteromonas atlantica, Cellulophaga lytica, Cobetia marina, and Halomonas pacifica. The antimicrobial activity of Formulations 10-12 was determined toward these marine microorganisms according to the methods of EXAMPLES 5-7. The MIC for each Formulation against each strain is compared to that of the PEI, ETCS, and TCS (alone) in Table 7.

Halomonas pacifica = assay: Growth reduction / MIC test against Halomonas pacifica; details: for MIC: Bisbaumannia pacifica
Protocol: as §1
as §2, with “ml of Guillard's F/2 medium was spiked” for “ml of tryptic soy broth was spiked”, “of the 10 mg/mL Formulation” for “of the mg/mL Formulation”
0.2 mL of each H. pacifica concentration was added in triplicate to a 96-well plate. Additionally, 0.2 mL of Guillard's F/2 medium without any H. pacifica or Formulation and 0.2 mL of Guillard's F/2 medium with H. pacifica, but no Formulations, served as negative and positive growth controls, respectively. The 96-well plates were placed in an illuminated growth cabinet with a 16:8 light:dark cycle (photon flux density 33 μmol m^−2 s^−1) for 48 hrs at 18° C. and measured for chlorophyll fluorescence using a multi-well plate spectrophotometer (excitation: 360 nm; emission: 670 nm). The efficacy of each Formulation was measured by determining the percent reduction in diatom growth as a function of Formulation concentration.
as §5

Navicula incerta [2] = assay: Growth reduction / MIC test against Navicula incerta in Guillard's F/2 medium, chlorophyll fluorescence
Protocol: as §1
as §2, with “ml of Guillard's F/2 medium was spiked” for “ml of tryptic soy broth was spiked”, “of the 10 mg/mL Formulation” for “of the mg/mL Formulation”
as §4, with “N. incerta)” for “C. lytica)”, “N. incerta” for “C. lytica”, “N. incerta,” for “C. lytica,”

Navicula incerta [3] = assay: as above; details: Table 12; read-out: N. incerta MIC
[4] = Formulation Concentration 0.78125 μg/mL
[5] = Formulation Concentration 1.5625 μg/mL
[6] = Formulation Concentration 3.125 μg/mL
[7] = Formulation Concentration 6.25 μg/mL
[8] = Formulation Concentration 12.5 μg/mL
[9] = Formulation Concentration 25 μg/mL
[10] = Formulation Concentration 50 μg/mL
[11] = Formulation Concentration 100 μg/mL
[12] = Table 12, read-out: C. lytica MIC
[13] = Table 12, read-out: H. pacifica MIC

SMILES: Clc1cc(Cl)c(OCC2CO2)c(Cl)c1 (stereo not drawn) [EDCP, 2-((2,4,6-trichlorophenoxy)methyl)oxirane]
- Percent reduction in growth of Staphylococcus epidermidis [1, 4]: 7.58%
- Percent reduction in growth of Staphylococcus epidermidis [1, 5]: 6.34%
- Percent reduction in growth of Staphylococcus epidermidis [1, 6]: 5.04%
- Percent reduction in growth of Staphylococcus epidermidis [1, 7]: 8.44%
- Percent reduction in growth of Staphylococcus epidermidis [1, 8]: 6.20%
- Percent reduction in growth of Staphylococcus epidermidis [1, 9]: 8.90%
- Percent reduction in growth of Staphylococcus epidermidis [1, 10]: 5.00%
- Percent reduction in growth of Staphylococcus epidermidis [1, 11]: 0.00%
- Percent reduction in growth of Candida albicans (Candida albicans; [4]): 11.66%
- Percent reduction in growth of Candida albicans (Candida albicans; [5]): 15.25%
- Percent reduction in growth of Candida albicans (Candida albicans; [6]): 0.00%
- Percent reduction in growth of Candida albicans (Candida albicans; [7]): 1.45%
- Percent reduction in growth of Candida albicans (Candida albicans; [8]): 0.00%
- Percent reduction in growth of Candida albicans (Candida albicans; [9]): 0.00%
- Percent reduction in growth of Candida albicans (Candida albicans; [10]): 21.55%
- Percent reduction in growth of Candida albicans (Candida albicans; [11]): 25.83%
- Percent reduction in growth of Escherichia coli (Escherichia coli; [4]): 14.85%
- Percent reduction in growth of Escherichia coli (Escherichia coli; [5]): 1.60%
- Percent reduction in growth of Escherichia coli (Escherichia coli; [6]): 0.00%
- Percent reduction in growth of Escherichia coli (Escherichia coli; [7]): 55.43%
- Percent reduction in growth of Escherichia coli (Escherichia coli; [8]): 52.95%
- Percent reduction in growth of Escherichia coli (Escherichia coli; [9]): 61.26%
- Percent reduction in growth of Escherichia coli (Escherichia coli; [10]): 1.38%
- Percent reduction in growth of Escherichia coli (Escherichia coli; [11]): 91.65%

SMILES: CNc1ccccc1 [N-methyl aniline, N-methylaniline]
- MIC [1]: > 100 µg/mL
- MIC (Cellulophaga lytica; read-out: C. lytica MIC, Table 12): > 100 µg/mL
- MIC (Halomonas pacifica; read-out: H. pacifica MIC, Table 12): > 100 µg/mL
- MIC (Navicula incerta [2]; read-out: N. incerta MIC): > 100 µg/mL
- MIC (Escherichia coli): > 100 µg/mL

SMILES: C=CCN [allyl amine]
- MIC ([1]; Table 12): > 100 µg/mL
- MIC (Cellulophaga lytica; [12]): > 100 µg/mL
- MIC (Halomonas pacifica; [13]): > 100 µg/mL
- MIC (Navicula incerta [3]): > 100 µg/mL
- MIC (Escherichia coli; Table 12): > 100 µg/mL

SMILES: COCCNCCOC [bis(methoxyethyl), bis(2-methoxyethyl)amine]
- MIC ([1]; Table 12): > 100 µg/mL
- MIC (Cellulophaga lytica; [12]): > 100 µg/mL
- MIC (Halomonas pacifica; [13]): > 100 µg/mL
- MIC (Navicula incerta [3]): > 100 µg/mL
- MIC (Escherichia coli; Table 12): > 100 µg/mL

SMILES: OCCNCCO [diethanolamine]
- MIC ([1]; Table 12): > 100 µg/mL
- MIC (Cellulophaga lytica; [12]): > 100 µg/mL
- MIC (Halomonas pacifica; [13]): > 100 µg/mL
- MIC (Navicula incerta [3]): > 100 µg/mL
- MIC (Escherichia coli; Table 12): > 100 µg/mL

SMILES: CC(O)CNCC(C)O (stereo not drawn) [diisopropanolamine]
- S. epidermidis MIC ([1]; Table 12): >100 µg/mL
- C. lytica MIC (Cellulophaga lytica; Table 12): >100 µg/mL
- H. pacifica MIC (Halomonas pacifica; Table 12): >100 µg/mL
- N. incerta MIC (Navicula incerta [2]; Table 12): >100 µg/mL
- E. Coli MIC (Escherichia coli; Table 12): >100 µg/mL

SMILES: NCCN [ethylenediamine]
- MIC ([1]; Table 12): > 100 µg/mL
- MIC (Cellulophaga lytica; [12]): > 100 µg/mL
- MIC (Halomonas pacifica; [13]): > 100 µg/mL
- MIC (Navicula incerta [3]): > 100 µg/mL
- MIC (Escherichia coli; Table 12): > 100 µg/mL
